How the values were obtained:
mice = format: in vivo, mouse; details: for effect on blood pressure (controls) / effect on heart rate (controls): intraperitoneally, 8 mM Cbi(II) shown
Procedure: Mice were anesthetized with 1.5% isoflurane gas, and after achieving a stable blood pressure and pulse (about 10 minutes), they were injected intraperitoneally with 100 μl of […] 8 mM Cbi(II) (open circles, solid line), 8 mM NO-Cbi (filled circles, dashed line), or 8 mM nitroglycerin (squares, dotted lines) (panels a and b). Control refers to anesthetized mice who received 100 μl water (triangles, solid line). In panel C, 100 μl of 6 mM NO-Cbi was injected at 0, 32, and 64 minutes as indicated by the arrows. Systolic and diastolic blood pressures, and pulse rate, were measured at the indicated times on the tail artery using a non-invasive tail cuff. The percent change in mean arterial pressure (A and C), and pulse rate (B and C) are shown. For panels A and B, data are the mean±SD of results from five mice for NO-Cbi studied on separate days, and four mice for the other conditions. […] Data in panel C are the mean±SD of results from three mice studied on different days.
Pulse, and systolic and diastolic blood pressures, were measured non-invasively in the tail artery of mice by restraining mice on a warming platform maintained at ˜38° C. The base of the tail was placed in a computer-controlled pneumatic cuff, and the distal tail was placed in a sensor assembly consisting of a light emitting diode and a photodiode detector. Baseline measurements were made with the mice awake in a dark chamber. The mice were then anesthetized with 3% isoflurane in an induction chamber, and returned to the platform where they received 1.5% isoflurane with 2 liter per minute of oxygen via a nose cone; the isoflurane caused a small, but stable, drop in blood pressure. Drugs in a volume of 100 ul were injected intraperitoneally into the mice, and pulse and blood pressure were measured every 5-15 minute, taking five readings at each time point.
To determine the effect of NO release from NO-Cbi in an intact mammal, blood pressure and pulse of mice injected intraperitoneally with NO-Cbi were measured.

[1] = system: CS-54 rat vascular smooth muscle cells; details: added to CS-54 cells
Procedure: CS-54 rat vascular smooth muscle cells were treated with the indicated concentrations of NO-Cbi for 1 hour (A), or 10 μM NO-Cbi for the indicated times (B and C). […] (C) Cell extracts were clarified by centrifugation, and nitrite and nitrate in the extracts were measured by an enhanced Griess reagent method. In A and B, “Con” refers to control, which was cells treated with water. As indicated, the effects of 30 μM cobinamide (Cbi) and 100 μM 8-CPT-cGMP (cGMP) are shown for comparison. In A and B, similar results were obtained in two other experiments.
Nitrite and nitrate were measured in CS-54 cell extracts and fly extracts using a kit from Active Motif based on an enhanced Griess reagent, as described previously (Broderick K E et al. (2006) FASEB J. 20:1865-73).

[2] = system: vasodilator-stimulated phosphoprotein (VASP) phosphorylated on Ser239 in CS-54 rat vascular smooth muscle cells; test: VASP phosphorylation in CS-54 cells (immunoblot); format: cell-based; details: added to CS-54 cells; 30 μM cobinamide shown
Procedure: CS-54 rat vascular smooth muscle cells were treated with the indicated concentrations of NO-Cbi for 1 hour (A), or 10 μM NO-Cbi for the indicated times (B and C). […] In A and B, “Con” refers to control, which was cells treated with water. As indicated, the effects of 30 μM cobinamide (Cbi) and 100 μM 8-CPT-cGMP (cGMP) are shown for comparison. In A and B, similar results were obtained in two other experiments.
Briefly, cells treated with an NO-releasing agent were extracted rapidly in a sodium dodecyl sulfate (SDS) containing sample buffer, and the cell extracts were subjected to SDS-polyacrylamide gel electrophoresis. Phospho-VASP was assessed by immunoblotting using an antibody specific for VASP phosphorylated on Ser259 (Smolenski A et al. (1998) J. Biol. Chem. 273:20029-35).
To determine if NO released from NO-Cbi can have a physiologic effect in cultured cells, vasodilator-stimulated phosphoprotein (VASP) phosphorylation was assessed in CS-54 cells.

[3] = system: Malpighian tubules isolated from D. melanogaster; test: Malpighian tubule fluid secretion; set-up: species or system Drosophila melanogaster; details: 1 mM cobinamide or Cbi(II), 5 mM ascorbic acid, half-strength Schneider's medium
Procedure: Malpighian tubules are the osmoregulatory organs of D. melanogaster, corresponding to vertebrate kidneys. Tubular fluid secretion is stimulated by NO and cGMP, and fluid secretion rates were measured as described previously (Broderick K E et al. (2005) J. Biol. Chem. 280:8678-85). Briefly, the Malpighian tubule pair of a fly was resected and suspended in mineral oil. […]
Malpighian tubules are an excellent model for studying the effects of a drug on an intact organ system (Broderick K E et al. (2003) Am. J. Physiol. Cell Physiol. 285:C1207-18). […] Deta-NONOate may not be affected as much by cysteine in the medium, because it has a slower NO release rate and the intact drug can be transported intracellularly before much NO is released.

[4] = cited from earlier work
isolated mouse hearts = test: Coronary flow in isolated perfused mouse hearts (Langendorff)
Procedure: Hearts and aortas were removed from NIH Swiss mice anesthetized with sodium nembutal, and coronary flow was measured in the hearts using a Langendorff preparation (FIG. 5a) and relaxation of aortic rings was measured after inducing constriction of the rings with prostaglandin F2α (FIG. 5b). The hearts and aortic rings were treated with a range of concentrations of NO-Cbi (filled circles), nitroglycerin (open circles, dotted line, FIG. 5a), and sodium nitroprusside (open circles, FIG. 5b). Coronary flow was measured on the same hearts for both NO-Cbi and nitroglycerin after an appropriate wash-out period between drugs, and aortic ring relaxation was measured on two rings from the same aorta for NO-Cbi and sodium nitroprusside. The data are the mean of two independent experiments performed on two separate hearts in each experiment (FIG. 5a), and the mean±SEM of two independent experiments performed on three separate aortic rings in each experiment (FIG. 5b).
Coronary flow was measured in isolated perfused mouse hearts in a Langendorff system, and was 10.8±0.5 ml/min/g wet weight (n=7 hearts) under basal conditions. […] The latter value is similar to maximal coronary flow of 24.6±1.8 ml/min/g wet weight obtained with 62 μM adenosine. For nitroglycerin to increase coronary flow to that of NO-Cbi, the nitroglycerin concentration had to be increased to 770 μM, or about 100-fold greater than the NO-Cbi concentration (FIG. 5a).

D. melanogaster = test: Viability of injected D. melanogaster; details: 1 μl injected; 1 mM (ascorbic acid 5 mM); observed 48 h
Procedure: (A) Tubular secretion rates of Malpighian tubules isolated from D. melanogaster were measured, using half-strength Schneider's medium. Basal tubular secretion was measured at 0, 10, and 20 minutes; at 20 minutes (depicted by the arrow) 1 mM cobinamide (Cbi, open circles), 1 mM NO-Cbi (filled circles), 0.5 mM Deta-NONOate (diamonds), or 100 μM 8-CPT-cGMP (inverted triangles) were added. Results are the mean±S.D. of three independent experiments performed on Malpighian tubule pairs from 10 flies. […] (B). Flies were injected with 1 μl of 1 mM cobinamide (Cbi, open circles), 1 mM NO-Cbi (filled circles), 0.5 mM Deta-NONOate (diamonds), or 1 mM spermine NONOate (squares). […] The data are plotted as a Kaplan-Meier survival curve, and are the mean±SD of three experiments, with 10 flies per condition per experiment. […] (C). Flies were injected with 1 μl of water (control, open bar), 1 mM cobinamide (Cbi, grey bar), or 1 mM NO-Cbi (black bars). Flies were killed and extracts were prepared at 3 hours for the water- and cobinamide-injected flies, and at the indicated times for the NO-Cbi-injected flies. Nitrite and nitrate in the extracts were measured using an enhanced Griess reagent.
The fluid volume of a fly is […], and thus, the injected agent was diluted about 10-fold. […]

rabbits = test: Rabbits with phenylephrine-induced hypertension; format: in vivo, rabbit; details: phenylephrine 5 to 20 μg/kg/min continuous intravenous infusion
Procedure: Phenylephrine was given by continuous intravenous infusion to an anesthetized rabbit at increasing rates from 5 to 20 μg/kg/min; the rabbit remained on the highest phenylephrine infusion rate until the end of the experiment (darker arrows with “A”-shaped arrowheads indicate start times of each increasing dose). At 49 minutes, an infusion of NO-Cbi was started at a rate of 3 μg/kg/min (2.9 nmol/kg/min), with the infusion rate doubled at 58 minutes (lighter arrows with triangular-shaped arrowheads indicate start times of infusions). Systolic and diastolic blood pressure recordings from an intra-arterial catheter are shown. Changes in total hemoglobin, oxyhemoglobin, and deoxyhemoglobin concentrations were measured by continuous wave near-infrared spectroscopy over the left thigh muscle. Phenylephrine caused a progressive decrease in total hemoglobin and oxyhemoglobin concentrations, which reversed within seconds of starting the NO-Cbi infusion.
Decreased tissue oxygenation as occurred in the experiments shown in FIGS. 7 and 8 would clearly be an undesirable effect of treating hypertensive patients with NO-Cbi. However, lowering blood pressure of a hypertensive patient is very different from lowering blood pressure of a normotensive subject, and the experiments described in Example 15 rabbits with normal or low (due to anesthesia) blood pressure. To simulate a hypertensive state, the blood pressure of rabbits was raised using a continuous intravenous infusion of phenylephrine, a peripheral vasoconstrictor (FIG. 9). As the rabbit's blood pressure increased above normal, tissue perfusion and oxygenation decreased, as evidenced by a decrease in total hemoglobin and oxyhemoglobin concentrations in muscle.
Thus, in an animal with drug-induced hypertension, NO-Cbi improved tissue perfusion and oxygenation as it lowered blood pressure.

Row | Structure (SMILES) | effect on blood pressure (controls) (mice) | effect on heart rate (controls) (mice) | effect on nitrite/nitrate levels (controls) [1] | effect on VASP phosphorylation (controls) [2] | other results
1 | C/C1=C2/[N-][C@H]([C@H](CC(N)=O)[C@@]2(C)CCC(=O)NC[C@@H](C)O)[C@]2(C)N=C(/C(C)=C3N=C(/C=C4N=C1[C@@H](CCC(N)=O)C\4(C)C)[C@@H](CCC(N)=O)[C@]\3(C)CC(N)=O)[C@@H](CCC(N)=O)[C@]2(C)CC(N)=O.[Co] [Cbi(II), reference compound] | no significant effect | no significant effect | Neither cobinamide, Cbi(II), or ascorbate had any effect | Neither cobinamide, Cbi(II), or ascorbate had any effect | effect on tubular secretion (controls) [3]: Neither cobinamide nor Cbi(II) significantly affected tubular secretion
2 | NCCN(CCN)/[N+]([O-])=N/O [Deta-NONOate] |  |  |  |  | half-life [4]: ~50 h
3 | Nc1ncnc2c1ncn2[C@@H]1O[C@H](CO)[C@@H](O)[C@H]1O [adenosine] |  |  |  |  | maximal coronary flow (isolated mouse hearts; 62 μM): 24.6±1.8 ml/min/g wet weight
4 | O=C1O[C@H]([C@@H](O)CO)C(O)=C1O [ascorbate, ascorbic acid, reference compound] | no significant effect | no significant effect | Neither cobinamide, Cbi(II), or ascorbate had any effect | Neither cobinamide, Cbi(II), or ascorbate had any effect | 
5 | C/C1=C2/[N-][C@H]([C@H](CC(N)=O)[C@@]2(C)CCC(=O)NC[C@@H](C)O)[C@]2(C)N=C(/C(C)=C3N=C(/C=C4N=C1[C@@H](CCC(N)=O)C\4(C)C)[C@@H](CCC(N)=O)[C@]\3(C)CC(N)=O)[C@@H](CCC(N)=O)[C@]2(C)CC(N)=O.[Co+3] [cobinamide, reference compound] | no significant effect | no significant effect | Neither cobinamide, Cbi(II), or ascorbate had any effect | Neither cobinamide, Cbi(II), or ascorbate had any effect | fly killing / toxicity to flies (D. melanogaster): not toxic to flies; effect on tubular secretion (controls) [3]: Neither cobinamide nor Cbi(II) significantly affected tubular secretion
6 | O=[N+]([O-])OCC(CO[N+](=O)[O-])O[N+](=O)[O-] [nitroglycerin] |  |  |  |  | systolic and diastolic blood pressure (mice; 0.8 μmol (100 μl of 8 mM) intraperitoneally, anesthetized mice): late decrease in blood pressure; concentration relative to the NO-Cbi concentration for equal coronary flow (isolated mouse hearts): about 100 fold; coronary flow (isolated mouse hearts; 12.0 μM infused): 15.3±1.0 ml/min/g wet weight; increase of coronary flow (isolated mouse hearts; 12.0 μM infused): 34%; concentration needed to increase coronary flow to that of NO-Cbi (isolated mouse hearts; versus 7 μM NO-Cbi): 770 µM
7 | CNC[C@H](O)c1cccc(O)c1 [phenylephrine, reference compound] |  |  |  |  | systolic and diastolic blood pressure (rabbits): increased the systolic and diastolic blood pressure; total hemoglobin and oxyhemoglobin in muscle (rabbits): decreased total hemoglobin and oxyhemoglobin in the muscle
